# Measured values taken from patent US8834862B2, “Methods, compositions and devices utilizing stinging cells/capsules for conditioning a tissue prior to delivery of an active agent” (NanoCyte Inc., priority 2005, dated 2014).
# Tested on: blood glucose
# Assay: Insulin delivery by aiptasia stinging capsule gel, blood glucose in nude mice
# Assay type: in vivo
# Details: topical aiptasia stinging capsule gel plus Humolin, blood glucose at 0, 30, 60 and 90 minutes after gel activation, FIG. 3
# Protocol: The potential of the stinging capsule patch to deliver an agent (insulin) into the blood stream was tested with aiptasia capsules.
# Materials—Commercial Insulin—Humolin of EliLilly was tested. Unless otherwise noted, all chemicals were purchased from Sigma (Aldrich).
# Animals—6-9 week old nude mice each weighing 20-30 gr were used.
# Insulin Delivery—Mice were topically applied with the aiptasia stinging capsule gel and Humolin. A few microlitres of blood were drawn from the tail tip prior to insulin application (time 0) and thirty minutes, sixty minutes and ninety minutes following gel activation. Blood glucose concentration was measured using a human glucometer.
# In parallel, and as a positive control, mice were subcutaneously injected with Humolin.
substance,measurement,value
insulin,insulin delivery / blood glucose regulation compared with subcutaneous injection,in a similar manner as subcutaneous injection
